Patent US12440493B2, “Combination therapy for treating cancer comprising substituted piperazines” (Eli Lilly and Company, priority 2020, dated 2025)
Values joined by “and” are separate entries in the source; they are usually repeats but may differ in a detail not shown here. Identical values can stand only once.

How the values were obtained:
2-HG production = assay: Plasma 2-HG inhibition (LC-MS metabolite analysis in plasma of AML PDx model); type: in vivo, human; conditions: for % plasma 2-HG (treatment group value): vehicle 100%
[1] = tested on: IDH1(R132H) primary human AML cells; assay: Bone marrow AML clearance (flow cytometry), human AML PDx models in NSG mice; type: in vivo; conditions: for Bone Marrow AML Clearance: % hCD33 + hCD45+ (% of white cells) / Bone Marrow AML Clearance: % hCD45+ (% of white cells): QD, PO, each line one animal
Protocol: Compounds and Formulation. For in vivo studies, each test article is prepared at an appropriate concentration with vehicle. […] Compound A is prepared fresh at the appropriate concentrations with vehicle every 7 days and stored at 4° C. between doses. […] Cytarabine is prepared fresh weekly by dilution with sterile saline from stock solution of Cytarabine (injection 20 mg/mL, (Pfizer injectables')). Azacitidine (Sigma, Lot #MKBR7212) is formulated in sterile water and is prepared fresh daily immediately before dosing. In vivo human AML PDx models. […] Two models are used in the studies: […] As needed, splenocytes from tumor-bearing mice are used to propagate and expand the models, as described. Each test article is prepared as described above at an appropriate concentration with vehicle to give animals the doses tested in this study at a dosing volume of 10 μL/gram body weight. Mice receiving Compound A (PO, QD) are treated at the indicated doses for the duration of the study. The combination agents are dosed as follows: […] Treated mice are assessed in comparison to vehicle treated and naïve (non-tumor bearing) control mice. Body weight is recorded twice per week. […] AML PDx model propagation. […] Spleens are processed and splenocytes isolated as described below. Two hundred μL per subject of the splenocyte prep is injected IV (intravenous, tail vein) into recipient NSG mice. […] Once engraftment is confirmed, the mice are monitored biweekly until ready to be put on study. […] Submandibular blood is collected. Spleen/Splenocyte Processing and Prep. After excision, a spleen is weighed, and […] is placed in a standard sterile 15 mL polypropylene conical tube containing PBS, and placed on ice. […] The spleen is placed in ice cold sterile PBS in a 15 mL collection tube. The spleen is removed from the collection tube and placed in a 100 micron 50 mL conical tube cell strainer (BD Falcon #352360). The spleen is processed by gentle rubbing of the spleen tissue against the surface of the cell strainer with the end of a 5 mL syringe plunger in a circular motion. The surface of the strainer is rinsed with 10 mL room temperature sterile DPBS (HyClone SH30028) 3 times during the process. […] The cell pellet is collected by centrifugation (300×g) and washed three times with 30 mL sterile DPBS. The cells are counted and resuspended in DPBS at the desired implant concentration. Bone Marrow Collection. […] Flow cytometry analysis of human white cells. Submandibular blood samples from in vivo studies are collected. Fluor-conjugated antibody stains are added according to the manufacturer's instructions (anti-human CD33-PE (clone WM53, BD Cat #555450), anti-human CD14-APC (clone MφpP9, BD Cat #340436), anti-human CD15-V450 (clone HI98, BD Cat #561584), anti-human CD117-BV421 (clone YB5.B8, BD Cat #562434), anti-human […]7 (clone ICRF44, BD Cat #557754), anti-human […]7 (clone HI30, BD Cat #557748), and anti-human CD3-FITC (clone SK7, BD Cat #340542)). The samples are incubated for 30 minutes at room temperature, protected from light. After the incubation, 1.5 mL 1×BD Lyse/Fix (37° C., (BD #558049)) is added to each sample and incubated for 12 minutes at room temperature. The tubes are centrifuged at 300×g for 7 minutes. BD Lyse/Fix solution is aspirated and the cell pellet washed with stain/wash buffer 3 times (1 wash step consisted of: pellet resuspended in 3 mL stain/wash buffer, centrifuged at 300×g, aspirated wash). Fixed cells are then resuspended in 300 to 400 μL stain/wash buffer. Samples are analyzed on a Becton Dickinson FACSVerse Flow cytometer (Cat #651155 Serial #Z6511550447) using standard flow cytometry principles and techniques. Samples are analyzed on the same day as they are stained and fixed. Population gating and data analysis of percent population are performed in the FACSuite software on the FACSVerse cytometer. Percent population values from the data analysis are plotted in Graphpad Prism or in JMP13. […]

[2] = 3.3 mg/kg Compound A, QD, PO, Table 1D, each line one animal
[3] = 3.3 mg/kg Compound A, QD, PO, Table 2D, each line one animal
[4] = plasma, B: 1 mg/kg Compound A, QD, PO, one line per animal
[5] = plasma, C: 10 mg/kg Compound A, one line per animal

C=CC(=O)N1CCN([C@@H](CC2CC2)c2ccc([C@H](C)Nc3ncc4c(n3)N(CC)C(=O)OC4)cc2)CC1 [Compound A, 7-[[(1S)-1-[4-[(1S)-2-cyclopropyl-1-(4-prop-2-enoylpiperazin-1-yl)ethyl]phenyl]ethyl]amino]-1-ethyl-4H-pyrimido[4,5-d][1,3]oxazin-2-one]
% Inhibition of 2-HG (plasma) (2-HG production; [2]): 92.715% and 97.316% and 100.207% and 99.855% and 92.797% and 94.779% | Naive Subtracted 2-HG (plasma) (2-HG production; [2]): 0.134 µM and 0.809 µM and 0.298 µM and -0.023 µM and 0.016 µM and 0.799 µM and 0.579 µM | Plasma 2-HG (2-HG production; [2]): 1.042 µM and 1.717 µM and 1.206 µM and 0.885 µM and 0.924 µM and 1.708 µM and 1.488 µM | % Inhibition of 2-HG (plasma) (2-HG production; [3]): 118.011% and 98.032% and 112.937% and 127.909% and 122.77% and 118.689% and 111.758% | Naive Subtracted 2-HG (plasma) (2-HG production; [3]): -1.236 µM and 0.135 µM and -0.888 µM and -1.915 µM and -1.562 µM and -1.282 µM and -0.807 µM | Plasma 2-HG (2-HG production; [3]): 1.701 µM and 3.072 µM and 2.049 µM and 1.022 µM and 1.374 µM and 1.654 µM and 2.13 µM | inhibition at 10 mg/kg (2-HG production; NSG mice, plasma, C: 10 mg/kg Compound A, one line per animal): 84% | inhibition at 3.3 mg/kg (2-HG production; NSG mice, po, 3.3 mg/kg Compound A, QD, Table 1D, each line one animal): 98.8% | inhibition at 1 mg/kg (2-HG production; NSG mice, po, plasma, B: 1 mg/kg Compound A, QD, PO, one line per animal): 54.7% | % plasma 2-HG (treatment group value) (2-HG production; group B: 1 mg Compound A): 38% | % plasma 2-HG (treatment group value) (2-HG production; group B: Compound A (3.3 mg/kg), azacitidine study): −15% | % plasma 2-HG (treatment group value) (2-HG production; group B: Compound A (3.3 mg/kg), cytarabine study): 3.4% | % plasma 2-HG (treatment group value) (2-HG production; group C: 10 mg Compound A): 9.2% | 2-HG (2-HG production; [4]): 9.264 µM and 6.489 µM and 7.318 µM and 8.683 µM and 8.938 µM | % Inhibition of 2-HG (2-HG production; [4]): 73.015% and 67.532% and 58.504% and 56.818% | Naive Subtracted 2-HG (2-HG production; [4]): 6.855 µM and 4.08 µM and 4.909 µM and 6.274 µM and 6.529 µM | 2-HG (2-HG production; [5]): 4.821 µM and 4.395 µM and 4.286 µM and 3.033 µM and 2.863 µM | % Inhibition of 2-HG (2-HG production; [5]): 86.867% and 87.584% and 95.874% and 97% | Naive Subtracted 2-HG (2-HG production; [5]): 2.412 µM and 1.986 µM and 1.877 µM and 0.624 µM and 0.454 µM | Bone Marrow AML Clearance: % hCD33 + hCD45+ (% of white cells) ([1]; 1 mg/kg Compound A): 87.74% and 92.23% | Bone Marrow AML Clearance: % hCD45+ (% of white cells) ([1]; 1 mg/kg Compound A): 88.34% and 92.36% | Bone Marrow AML Clearance: % hCD33 + hCD45+ (% of white cells) ([1]; 3.3 mg/kg Compound A, Table 1C): 98.6% and 44.3% and 98.54% and 86.55% | Bone Marrow AML Clearance: % hCD45+ (% of white cells) ([1]; 3.3 mg/kg Compound A, Table 1C): 98.36% and 43.99% and 98.15% and 86.21% | Bone Marrow AML Clearance: % hCD33 + hCD45+ (% of white cells) ([1]; 3.3 mg/kg Compound A, Table 2C): 72.73% and 84.3% and 99.41% and 91.97% | Bone Marrow AML Clearance: % hCD45+ (% of white cells) ([1]; 3.3 mg/kg Compound A, Table 2C): 72.6% and 84.16% and 99.3% and 91.11% | Bone Marrow AML Clearance: % hCD33 + hCD45+ (% of white cells) ([1]; 10 mg/kg Compound A): 8.65% and 4.27% and 1.09% and 0.78% and 1.84% | Bone Marrow AML Clearance: % hCD45+ (% of white cells) ([1]; 10 mg/kg Compound A): 8.66% and 4.28% and 1.11% and 0.78% and 1.85% | % human AML cells in bone marrow (of white cells; lower = more clearance) ([1]; group B: 1 mg Compound A, vehicle 86%): 90% | % human AML cells in bone marrow (of white cells; lower = more clearance) ([1]; group B: Compound A (3.3 mg/kg), azacitidine study, vehicle 94%): 87% | % human AML cells in bone marrow (of white cells; lower = more clearance) ([1]; group B: Compound A (3.3 mg/kg), cytarabine study, vehicle 94%): 78% | % human AML cells in bone marrow (of white cells; lower = more clearance) ([1]; group C: 10 mg Compound A, vehicle 86%): 2.3%
